These results are taken from ChEMBL document CHEMBL1139792, “Correlation of carboxylic acid pKa to protein binding and antibacterial activity of a novel class of bacterial translation inhibitors” (Bioorg Med Chem Lett, 2007).

By Kd is commonly meant a measure of binding affinity in units of concentration. Lower therefore signals a tighter complex. By MIC is commonly meant the least concentration at which growth counts as inhibited. A word on the pKa: it is the pH at which an ionisable group is half protonated. A lower pKa goes with a stronger acid or weaker base. By ED50 is commonly meant the dose that gives a 50% effect, or the effect in half of the subjects. Lower therefore signals greater potency.

Converted amounts (≈) assume the structure as drawn. The source made the active and inactive calls. The calls are words filed in the database; no cut-off is given here.

For data set [1], the target named is T1, Albumin (Homo sapiens, UniProt P02768). The experiment in a line: Displacement of fluorescent dansyl sarcosine from human serum albumin site II on subdomain IIIA.
T1 sequence (P02768 whole entry): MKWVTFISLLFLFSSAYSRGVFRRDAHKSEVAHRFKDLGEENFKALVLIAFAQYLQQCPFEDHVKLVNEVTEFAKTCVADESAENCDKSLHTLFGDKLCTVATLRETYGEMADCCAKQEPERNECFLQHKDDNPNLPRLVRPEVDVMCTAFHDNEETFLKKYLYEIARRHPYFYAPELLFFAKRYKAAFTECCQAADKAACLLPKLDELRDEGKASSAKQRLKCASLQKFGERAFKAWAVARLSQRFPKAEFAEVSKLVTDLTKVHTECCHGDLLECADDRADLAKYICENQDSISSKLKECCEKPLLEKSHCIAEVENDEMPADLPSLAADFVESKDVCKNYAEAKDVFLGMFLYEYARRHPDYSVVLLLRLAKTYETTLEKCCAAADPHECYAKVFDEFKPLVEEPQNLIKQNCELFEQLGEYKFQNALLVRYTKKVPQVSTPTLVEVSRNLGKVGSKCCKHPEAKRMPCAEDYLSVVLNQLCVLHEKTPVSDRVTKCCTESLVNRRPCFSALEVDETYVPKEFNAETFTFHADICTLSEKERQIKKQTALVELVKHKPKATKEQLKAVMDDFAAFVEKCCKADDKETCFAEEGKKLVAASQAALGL
Data set [2] has as its system Staphylococcus aureus. The experiment in a line: Antibacterial activity against Staphylococcus aureus UC9218 in presence of 5% human serum. The class given is functional.
Data set [3] is described as follows: Acid dissociation constant, pKa by pressure-assisted capillary electrophoresis method. The class given is physicochemical.
The test system of data set [4] is Staphylococcus aureus. The experiment in a line: Antibacterial activity against Staphylococcus aureus UC9218. The class given is functional.
The subject of data set [5] is Staphylococcus aureus. The experiment in a line: Antibacterial activity against Staphylococcus aureus UC9218 in presence of 10% human serum. The class given is functional.
For data set [6], the system named is Staphylococcus aureus. The experiment in a line: Antibacterial activity against Staphylococcus aureus in mouse bacteremia model. The class given is functional.
The target of data set [7] is T1, Albumin. Description: Binding to high affinity site of human serum albumin. The class given is ADME.

As for `Cc1ccc(NC(=O)c2cccc(S(=O)(=O)N3CCOCC3)c2)c(C(=O)O)c1`, on Albumin [1], the Kd is 7.5 µM. In addition, the MIC with Staphylococcus aureus [2] and with Staphylococcus aureus [4] was above 128 µg/mL each time. In addition, the pKa in data set [3] was 3.36.

Turning to `N#Cc1ccc(NC(=O)c2ccc(S(=O)(=O)N3CCCC3)cc2)c(C(=O)O)c1`, the MIC turned out to be 8 µg/mL in the data set with Staphylococcus aureus [5] and 1 µg/mL (≈ 2.5 µM) with Staphylococcus aureus [4]. Further, the result with Staphylococcus aureus [6] was inactive.

With `CCCN(CCC)S(=O)(=O)c1ccc(C(=O)Nc2cc3ccccc3cc2C(=O)O)cc1`, the MIC is above 64 µg/mL in the data set with Staphylococcus aureus [5] and 32 µg/mL (≈ 70.4 µM) with Staphylococcus aureus [4].

For `O=C(Nc1ccc(Br)cc1C(=O)O)c1cccc(S(=O)(=O)N2CCOCC2)c1`, the Kd on Albumin [1] amounted to 4.8 µM. Moreover, the figures for the MIC in the data set with Staphylococcus aureus [2] and against Staphylococcus aureus [4] were 32 µg/mL and 4 µg/mL (≈ 8.52 µM), respectively. In data set [3], the pKa came out at 2.79.

`COc1ccc(NC(=O)c2cccc(S(=O)(=O)N3CCOCC3)c2)c(C(=O)O)c1` registered a Kd at Albumin [1] of 8.1 µM. In addition, the MIC with Staphylococcus aureus [2] and in the data set with Staphylococcus aureus [4] was above 128 µg/mL each time. Further, the pKa in data set [3] is 3.12.

Regarding `N#Cc1ccc(NC(=O)c2ccc(S(=O)(=O)N3CCOCC3)cc2)c(C(=O)O)c1`, the results for the dissociation constant Kd at Albumin [1] and at Albumin [7] were 5.3 µM and 14 µM, respectively. Besides, the MIC in the data set with Staphylococcus aureus [2] was determined as 2 µg/mL; in the data set with Staphylococcus aureus [5], 4 µg/mL; in the data set on Staphylococcus aureus [4] it was 1 µg/mL (≈ 2.41 µM). The molecule also had a pKa in data set [3] of 2.56. The molecule also showed an ED50 with Staphylococcus aureus [6] above 200 mg/kg.

As for `N#Cc1ccc(NC(=O)c2ccc(S(=O)(=O)N3CCc4cc(Cl)ccc43)cc2)c(C(=O)O)c1`, the values for the MIC in the data set with Staphylococcus aureus [5] and against Staphylococcus aureus [4] were 8 µg/mL and 0.125 µg/mL (≈ 0.259 µM), respectively. The result in the data set on Staphylococcus aureus [6] was inactive.

As to `O=C(Nc1ccc([N+](=O)[O-])cc1C(=O)O)c1cccc(S(=O)(=O)N2CCOCC2)c1`, the Kd on Albumin [1] was 4.4 µM. For the same molecule, the values for the MIC with Staphylococcus aureus [2] and against Staphylococcus aureus [4] were 16 µg/mL and 4 µg/mL (≈ 9.19 µM), respectively. This molecule had a pKa in data set [3] of 3.44.

Regarding `O=C(Nc1ccccc1C(=O)O)c1cccc(S(=O)(=O)N2CCOCC2)c1`, the affinity at Albumin [1], expressed as Kd, was 6 µM. Moreover, the MIC in the data set with Staphylococcus aureus [2] and in the data set with Staphylococcus aureus [4] was above 128 µg/mL in each case. Besides, the pKa in data set [3] came to 3.18.

In the case of `N#Cc1ccc(NC(=O)c2cc(SCc3ccccc3)on2)c(C(=O)O)c1`, the results for the MIC with Staphylococcus aureus [5] and in the data set on Staphylococcus aureus [4] were 4 µg/mL and 0.125 µg/mL (≈ 0.329 µM), respectively.

Regarding `O=C(Nc1ccc(F)cc1C(=O)O)c1cccc(S(=O)(=O)N2CCOCC2)c1`, the Kd on Albumin [1] stood at 6.6 µM. In addition, the MIC in the data set on Staphylococcus aureus [2] was 128 µg/mL; in the data set on Staphylococcus aureus [4] it was 128 µg/mL (≈ 313 µM). In data set [3], the pKa amounted to 2.92.

Take `O=C(Nc1ccc(Cl)cc1C(=O)O)c1cccc(S(=O)(=O)N2CCOCC2)c1`: at Albumin [1], the Kd turned out to be 6.5 µM. Also, the MIC with Staphylococcus aureus [2] is 32 µg/mL; in the data set with Staphylococcus aureus [4], 4 µg/mL (≈ 9.41 µM). In data set [3], the pKa was 2.81.

In the case of `O=C(Nc1ccc(Br)cc1C(=O)O)c1ccc(S(=O)(=O)N2CCc3cc(Cl)ccc32)cc1`, the MIC came to 64 µg/mL with Staphylococcus aureus [5] and 0.125 µg/mL (≈ 0.233 µM) in the data set on Staphylococcus aureus [4].
